Reference: paper PMC5471252, “Anti-leukemia activity of a Hsp70 inhibitor and its hybrid molecules” (Scientific Reports, 2017)
“Also recorded” adds a separate entry of the source.

Columns and labels:
HL-60 cells = experiment: MTT assay, cell viability of HL-60 cells; type: cell-based; conditions: Homo sapiens, 48 h, mean ± s.d., n = 3, read-out: IC50 values of compounds for leukemia cells
KG-1 cells = experiment: MTT assay, cell viability of KG-1 cells; type: cell-based; conditions: Homo sapiens, 48 h, mean ± s.d., n = 3, read-out: IC50 values of compounds for leukemia cells
[1] = test system: Ba/F3 cells producing imatinib-resistant mutant Bcr-Abl (T315I); experiment: MTT assay, Ba/F3 cells producing mutant Bcr-Abl (T315I); type: cell-based, murine; conditions: Mus musculus, BaF3, 24 h, read-out: IC50 values, cytotoxicity towards cells expressing mutant Abl
Description: Next, the cytotoxic effects of Az on wild-type and mutant Bcr-Abl expressing cells were evaluated.
Cells were exposed to each compound (a HCl salt form) at various concentrations for indicated time periods (24 or 48 h) in culture media. MTT assays were conducted according to known procedures. The absorbance at 570 nm was determined by employing a microplate reader (TECAN, Infinite® 200 PRO).
Cells were treated with various concentrations of each compound for 24 h. Cell death was measured by using an MTT assay (mean ± s.d., n = 3).

[2] = target: T1, ATPase domain (1-386 residues) of human Hsc70 (Homo sapiens, UniProt P11142); experiment: STD NMR competition with ATP-γ-S; type: binding; conditions: ATP-γ-S in place of ATP, Az phosphate salt form
T1 construct: pET28a-human Hsc70 ATPase domain (1-386 residues); inferred from the pET28a vector and nickel-column purification; made in house; host or cells: E. coli BL21 (DE3)
Description: However, the detailed mode of Az binding to the proteins has not been elucidated. To gain information about the molecular basis of Az binding to Hsp70 proteins, NMR studies were carried out on a complex of Az with an ATPase domain (1-386 residues) of human Hsc70. Saturation transfer difference (STD) NMR studies were conducted initially to obtain information on Az binding to the ATPase domain of Hsc70[30]. […] Next, we evaluated whether Az affects binding of ATP to the ATPase domain. For STD experiments, less hydrolytic ATP-γ-S was used in place of ATP.
For STD experiments, 10 μM of an ATPase domain of Hsc70, 1 mM of ATP-γ-S and Az (a phosphate salt form) were used. For competition studies between ATP-γ-S and Az, STD of the sample with 5 μM ATPase domain of Hsc70 and 500 μM ATP-γ-S was initially measured, and further titrated with Az up to 1 mM. The ratios of ATP-γ-S to Az were 1:0, 1:1, 1:1.5, and 1:2. All STD NMR spectra were obtained using 20 mM solutions of deuterated Tris buffer with 5% (v/v) DMSO-d6 (pD 7.2).

HL-60 and K562 cells [3] = experiment: Flow cytometry, fluorescein-annexin V and PI staining; type: cell-based, human; conditions: 24 h; 10 µM Az, 10 µM GD or 4 µM Az-O3-GD
Description: (§1) To determine whether Az promotes leukemia cell death via apoptosis, acute leukemia HL-60 and chronic leukemia K562 cells were independently incubated with Az. The treated cells were then exposed to a mixed solution of fluorescein-annexin V and propidium iodide (PI) and flow cytometry analysis was conducted. […] The size of the treated cells was also assessed by using flow cytometry. […] We also investigated if the mitochondrial membrane potential in cells treated with Az is disrupted. To test this possibility, HL-60 and K562 cells were exposed to Az and subsequently stained with a membrane potential sensitive JC-1 probe. […] This serves as another evidence for apoptosis induced by Az.
HL-60 and K562 cells were incubated with each compound for 24 h in culture media. Cells were re-suspended with 500 μL binding buffer (10 mM HEPES, […] and 2.5 mM CaCl2, pH 7.5) and then incubated with the FITC-annexin V apoptosis detection kit with PI according to the protocol provided by the manufacturer. Flow cytometry was carried out by using a BD FACSVerse™ instrument (BD Biosciences) and the data were analyzed by using a FlowJo™ software (BD Biosciences).

HL-60 and K562 cells [4] = experiment: Flow cytometry, JC-1 mitochondrial membrane potential; type: cell-based, human; conditions: 24 h; 10 µM Az or 4 µM Az-O3-GD
Description: as §1
JC-1 staining: HL-60 and K562 cells were treated with each compound and then with 2.5 μg/mL JC-1 (Anaspec) in PBS for 15 min. Flow cytometry was conducted with a BD FACSVerse™ instrument (the red fluorescence signal: λex = 550 nm, λem = 600 nm; the green fluorescence signal: λex = 485 nm, λem = 535 nm) and the data were analyzed using a FlowJo™ software.

[5] = test system: Hsp70 level in HL-60 and K562 cells; experiment: Western blot of Hsp70 and Hsp90 levels; type: cell-based, human; conditions: cells treated 24 h
Description: Because Az-O3-GD promotes caspase activation in leukemia cells, it was anticipated that procaspase-9, procaspase-3 and PARP would be cleaved in treated cells. To test this possibility, HL-60 and K562 cells were exposed to Az-O3-GD, along with Az and GD as controls and western blot analysis was then carried out. […] Although Az-O3-GD upregulates Hsp70, the presence of the Hsp70 inhibitor in this hybrid causes its cytotoxicity against leukemia cells to be higher than that of GD. Finally, we examined the effect of Az-O3-GD on AIF-mediated caspase-independent apoptosis. To this end, HL-60 and K562 cells were incubated with Az-O3-GD for 24 h.
Western blot analysis. […] peroxidase-conjugated goat anti-rabbit IgG (1:2000, Santa Cruz Bio Technology) and goat anti-mouse IgG (1:2000, Santa Cruz Bio Technology) were used as the secondary antibodies. The blots were developed by using a West-ZOL® plus Western Blot Detection System (Intron Biotechnology Inc., South Korea). Western blot signals were analyzed by using a G:BOX Chemi Fluorescent & Chemiluminescent Imaging System.

T1 sequence (P11142 1-386): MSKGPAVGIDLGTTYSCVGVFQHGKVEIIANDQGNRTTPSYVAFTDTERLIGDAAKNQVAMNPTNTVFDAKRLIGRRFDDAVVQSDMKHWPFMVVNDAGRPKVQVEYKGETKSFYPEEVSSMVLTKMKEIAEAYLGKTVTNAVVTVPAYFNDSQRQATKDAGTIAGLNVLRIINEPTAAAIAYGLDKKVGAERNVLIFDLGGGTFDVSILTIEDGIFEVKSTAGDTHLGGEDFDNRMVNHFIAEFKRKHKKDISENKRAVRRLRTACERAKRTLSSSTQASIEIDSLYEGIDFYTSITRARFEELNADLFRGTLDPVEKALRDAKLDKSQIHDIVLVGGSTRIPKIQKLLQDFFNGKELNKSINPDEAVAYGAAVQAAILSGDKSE

Question: `COc1ccc(-c2nc(-c3cc(C(F)(F)F)cc(C(F)(F)F)c3)n(Cc3ccc(C(=O)NCCOCCOCCN)cc3)c2-c2ccc(OC)cc2)cc1` [Az, apoptozole] was tested. Which IC50 (HL-60 cells) did it give?
Answer: 2800 ± 870 nM

Question: What about the IC50 (KG-1 cells) of the same compound?
Answer: 3300 ± 710 nM

Question: And the IC50 [1]?
Answer: 2200 nM

Question: And the “effect on binding of ATP to the ATPase domain” value [2]?
Answer: blocks ATP binding

Question: And the “apoptosis, annexin V binding and PI uptake” value (HL-60 and K562 cells [3])?
Answer: positive annexin V binding and positive PI uptake; also recorded: induces apoptosis

Question: And the “mitochondrial membrane potential, JC-1 red fluorescence” value (HL-60 and K562 cells [4])?
Answer: reduction of the mitochondrial membrane potential

Question: What about the “translational level of Hsp70” value [5] of the same compound?
Answer: does not affect the translational levels of Hsp70 and Hsp90
